Experimental data reported in US8993622B2, “Antiviral compounds” (Eirium AB, priority 2010, dated 2015).

What was measured:
Ad37 (D) = assay: Quantitative real-time PCR of adenovirus DNA replication in A549 cells (Ad37); assay type: cell-based; details: Human adenovirus sp., read-out: % inhibition of DNA replication (SD)
Experimental: (§1) Approximately 1×10^5 A549 cells were seeded in 24-well plates (Nunc) on the day before infection. On the day of infection, the cells in one well were counted to establish the amount of virions to be added. The growth medium was removed and compound and virus were added simultaneously to the cells in 700 μl DMEM with 0.75 g/l NaHCO3, 20 mM HEPES, 1×PEST, and 1% FBS. Compounds were added in concentrations ranging from 0.5 μM to 15 μM. The final concentration of DMSO was less than 1% in all samples. One pg of Ad virions was added per cell. The plate was incubated at 37° C. in 5% CO2 and 24 h after infection the cells were harvested, washed once, and resuspended in PBS. […] The design of primers and probes for analysis of various Ad types representing different adenovirus species with quantitative PCR has been described previously (Allard et al. 2001. Rapid typing of human adenoviruses by a general PCR combined with restriction endonuclease analysis. Journal Clinical Microbiology 39:498-505). Briefly, quantitative real-time PCR was carried out using a degenerate primer pair, Kadgen1 (forward)—Kadgen 2 (reverse) (5′-CWT ACA TGC ACA TCK CSG G-3′—SEQ ID NO:1, and 5′-CRC GGG CRA AYT GCA CCA G-3′—SEQ ID NO:2, respectively); DNA technology A/S, Aarhus, Denmark). […] Real-time PCR was performed in an ABI PRISM 7700 Sequence Detector (Applied Biosystems) and analyzed with Sequence Detector v1.7a software.

Ad41 (F) = assay: Quantitative real-time PCR of adenovirus DNA replication in A549 cells (Ad41); assay type: cell-based; details: Human adenovirus sp., read-out: % inhibition of DNA replication (SD)
Experimental: as §1

HSV-1 = assay: qPCR of herpes simplex 1 replication in GMK cells; assay type: cell-based, Herpes simplex virus 1; details: 24 h
Experimental: Same procedure as for qPCR for adenovirus quantification was followed with the exception of a few steps. Namely, 7×10^4 green monkey kidney (GMK) cells were seeded in 24-well plate the day before infection. Seventy-five virus particles of HSV-1 (stock 1351-95 P13) were added per cell. After 24 h incubation with the compound A02 at 37° C. in 5% CO2, the cells were harvested and DNA was prepared from 200 μL of the total 500 μL well-volume to include the DNA of possible released HSV-1 particles. The primers used in the qPCR assay were; Rune 1 (sense—position 137680-137697 in HSV-1 genome) (5′-GGC CTG GCT ATC CGG AGA-3′—SEQ ID NO:6) and Rune 2 (antisense—position 137742-137726 in HSV-1 genome) (5′-GCG CAG AGA CAT CGC GA-3′—SEQ ID NO:7), the final concentration in the reaction mixture of the primers were 300 nM. As in the adenovirus quantification a FAM-TAMRA labeled probe was used; Rune 3 (5′-CAGCACACGACTTGGCGTTCTGTGT-3′—SEQ ID NO:8) to a final concentration of 175 nM in the reaction mixture.

Tn5 transponase = biological target: T1, Tn5 transponase (Escherichia coli, UniProt Q46731); details: US 2006/0035245; cited from earlier work
T1 sequence (Q46731 1-476): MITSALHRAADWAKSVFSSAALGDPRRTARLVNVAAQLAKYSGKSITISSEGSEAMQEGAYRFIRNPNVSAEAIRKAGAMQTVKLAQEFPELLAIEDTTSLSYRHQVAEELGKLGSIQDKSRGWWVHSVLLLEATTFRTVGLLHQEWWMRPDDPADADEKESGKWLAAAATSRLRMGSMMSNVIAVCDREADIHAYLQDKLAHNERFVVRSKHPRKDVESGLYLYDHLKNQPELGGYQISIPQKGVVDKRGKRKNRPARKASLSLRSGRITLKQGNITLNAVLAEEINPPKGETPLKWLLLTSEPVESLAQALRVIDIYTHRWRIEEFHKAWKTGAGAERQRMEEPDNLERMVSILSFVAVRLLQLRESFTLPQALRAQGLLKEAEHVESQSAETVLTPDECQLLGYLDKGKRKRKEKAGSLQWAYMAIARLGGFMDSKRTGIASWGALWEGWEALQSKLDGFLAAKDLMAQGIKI

Compound: O=C(Nc1ccccc1C(=O)Nc1ccccc1C(=O)O)c1ccccc1 [Compound A02, 2-[[2-(Benzoylamino)benzoyl]amino]-benzoic acid]
- inhibition at 5 µM (Ad37 (D); 5 μM): 86%
- inhibition at 15 µM (Ad37 (D); 15 μM): 94%
- inhibition at 5 µM (Ad41 (F); 5 μM): 80%
- inhibition at 15 µM (Ad41 (F); 15 μM): 88%
- inhibitory effect on herpes simplex 1 replication (HSV-1): about the same as observed with the representatives of all the six human adenovirus species
- inhibition of Tn5 transponase (Tn5 transponase): found to inhibit
